How the values were obtained:
Kunming mice = assay: Sucrose-loading test, postprandial blood glucose; format: in vivo; conditions: gavage, 0-120 min
Method: Kunming mice (male, 35–40 g) were gained from Xi’an Jiaotong University (Xi’an, China). […] After gavage, the blood glucose levels were measured at 0, 15, 30, 45, 60, 90, and 120 min by glucose detection kit (Robio Co., Shanghai, China). The whole process conformed to the Guide for the Care and Use of Laboratory Animals, eighth edition (ISBN 10: 0-309-15396-4) ([22]).

α-glucosidase [1] = molecular target: T1, α-glucosidase (Saccharomyces cerevisiae, UniProt P53341); assay: α-glucosidase inhibition assay (pNPG, absorbance at 405 nm); format: biochemical; conditions: 0.1 mg/mL and 0.5 mg/mL, Figure 1
T1 sequence (P53341 whole entry): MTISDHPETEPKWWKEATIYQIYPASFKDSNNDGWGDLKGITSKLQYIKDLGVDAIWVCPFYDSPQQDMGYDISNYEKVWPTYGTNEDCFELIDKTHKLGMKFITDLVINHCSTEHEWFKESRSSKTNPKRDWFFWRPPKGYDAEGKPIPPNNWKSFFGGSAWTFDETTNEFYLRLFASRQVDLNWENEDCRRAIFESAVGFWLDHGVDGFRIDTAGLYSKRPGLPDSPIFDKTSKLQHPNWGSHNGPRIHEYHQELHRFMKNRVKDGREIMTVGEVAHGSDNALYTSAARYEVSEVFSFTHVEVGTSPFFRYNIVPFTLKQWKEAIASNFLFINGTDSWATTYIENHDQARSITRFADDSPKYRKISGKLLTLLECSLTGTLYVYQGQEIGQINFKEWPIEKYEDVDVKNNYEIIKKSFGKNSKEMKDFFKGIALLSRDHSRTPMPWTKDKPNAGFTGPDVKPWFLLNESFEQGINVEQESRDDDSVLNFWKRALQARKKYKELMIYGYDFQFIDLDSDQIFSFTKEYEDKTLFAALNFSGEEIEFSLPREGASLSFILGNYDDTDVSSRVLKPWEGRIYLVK
Method: Different concentrations (0.01, 0.1, 1, 5, and 10 mg/mL) of Pop extract samples, PBS (pH = 6.8), and α-glucosidase (5 U/mL) were mixed together with equal volumes and co-incubated at 37°C for 15 min. 20 μL pNPG (3 mM) was added to incubate for another 10 min and 150 μL Na2CO3 (0.1 mol/L) was used to stop the reaction. […] Meanwhile, the blank group without samples were simultaneously carried out and the inhibition ratios were calculated ([21], [22]).
For identified compounds, two concentrations (0.1 mg/mL and 0.5 mg/mL) of each inhibitor were prepared and added to PBS (pH = 6.8) and α-glucosidase (5 U/mL) with equal volumes. After that, 20 μL pNPG (3 mM) was added to initiate the reactions and the changes of absorbance were recorded every 20 s immediately.

α-glucosidase [2] = molecular target: T1, α-glucosidase; assay: Kinetic analysis: Lineweaver–Burk plot and inhibitory reversibility; format: biochemical
Method: Lineweaver–Burk plot was employed to determine the inhibitory type of EA against α-glucosidase ([23]). Briefly, 20 μL α-glucosidase (5 U/mL) was mixed with different concentrations (0, 10, 15, 20, 30 μg/mL) of EA and incubated at 37°C for 15 min. pNPG (1.0, 2.0, 4.0, and 8.0 × 10^–3 mol/L) was added to initiate the reaction and the changes of absorbance were recorded every 60 s immediately. The double-reciprocal plots of reaction velocity (υ) against different concentration of pNPG (1/υ vs. 1/[pNPG]) were analyzed using the Lineweaver–Burk plot to determine inhibition constant (Ki).
To determine the inhibitory reversibility of EA against α-glucosidase, different concentrations (0, 20, 40, 60, and 100 μg/mL) of EA were reacted with the range of 7.5–1 U/mL α-glucosidase, the absorbance was recorded every 60 s immediately after the pNPG (3 mM) was added ([24]).

α-glucosidase [3] = molecular target: T1, α-glucosidase; assay: Fluorescence quenching of α-glucosidase by EA (Stern–Volmer, binding and thermodynamic analysis)
Method: The fluorescence spectra of α-glucosidase with or without EA were measured at three different temperatures (298, 304, and 310 K) according to the previous study ([21]). Exactly, 2.5 mL α-glucosidase (15 U/mL) was titrated by continuous additions of EA (5 μL each time) to reach a final concentration range from 0 to 19.89 × 10^–6 mol/L. After 5 min of equilibration under different temperatures, the steady fluorescence emission spectra were recorded from 300 to 460 nm with an excitation wavelength of 280 nm. Additionally, the fluorescence of free EA was measured as the background. According to fluorescence spectra data, the quenching constant (Ksv), binding constant (Ka), number of binding sites (n), the binding constant of accessible fluorophores, and the values of free energy change (△G^0), △H^0 and △S^0 were calculated according the previous reports ([21], [22], [25]).
To further exploit the quenching mechanism, Ksv was calculated by Stern–Volmer equation to determine the quench type, dynamic quenching or static quenching:
(1) F0/F=1+KSV[Q]=1+Kqτ0[Q]
where F0 and F are the peak of fluorescence intensities of α-glucosidase […], respectively; Ksv is the dynamic quenching constant; Kq is the quenching rate constant; [Q] is the different concentrations of EA; τ0 is the average lifetime of fluorescence with the value of 10^–8 s.
For static quenching, the equation as follow was employed to calculate binding constant (Ka) and number of binding sites (n) between EA and α-glucosidase:
(2) lgF0-F/F=lgKa+nlg[Q]
Thermodynamic analysis was performed to further determine the binding forces between EA and α-glucosidase, and the relevant thermodynamic parameters, including△G^0,△H^0, and △S^0, were calculated by the two following equations: […]

α-glucosidase [4] = molecular target: T1, α-glucosidase; assay: Circular dichroism spectra, secondary structure contents of α-glucosidase; conditions: EA 2 mg/mL, α-glucosidase 5.0 U/mL
Method: The analysis of CD spectrum was performed according to the previous report with some modifications ([26]). Briefly, both α-glucosidase and EA were dissolved in PBS (pH = 6.8). […] The spectrum scanning range was 200–250 nm, the response time and scanning speed were 1 s and […], respectively.

α-glucosidase [5] = molecular target: T1, α-glucosidase; assay: Atomic force microscopy of α-glucosidase with EA; conditions: EA 40 μg/mL, α-glucosidase 2.0 U/mL, co-incubation 30 min
α-glucosidase [6] = molecular target: T1, α-glucosidase; parameters: method as in PMID 20232167; conditions: EA isolated and identified from Rosa gallica; cited from earlier work

Structure (SMILES): C[C@H]1O[C@H](O[C@H]2[C@H](O)[C@@H](O)[C@@H](O[C@H]3[C@H](O)[C@@H](O)C(O)O[C@@H]3CO)O[C@@H]2CO)[C@H](O)[C@@H](O)[C@@H]1N[C@H]1C=C(CO)[C@@H](O)[C@H](O)[C@H]1O (some centres unmarked) [acarbose, Acarbose, reference compound]
- reduction of AUC of blood glucose (Kunming mice; sucrose 2 g/kg + acarbose 50 mg/kg): 36.4%

Structure (SMILES): O=c1c(O)c(-c2ccc(O)cc2)oc2cc(O)cc(O)c12 [kaempferol, Kaempferol]
- α-glucosidase inhibitory activity of identified compounds (in words) (α-glucosidase [1]): strong activity

Structure (SMILES): O=C(O)c1cc(O)c(O)c(O)c1 [gallic acid, Gallic acid]
- α-glucosidase inhibitory activity of identified compounds (in words) (α-glucosidase [1]): strong activity

Structure (SMILES): O=c1oc2c(O)c(O)cc3c(=O)oc4c(O)c(O)cc1c4c23 [EA, Ellagic acid]
- α-glucosidase inhibitory activity of identified compounds (in words) (α-glucosidase [1]): strongest activity
- inhibitory type (α-glucosidase [2]; Lineweaver–Burk plot, lines intersect on Y axis): competitive
- inhibitory reversibility (α-glucosidase [2]; υ vs. [α-glucosidase], EA 0-100 μg/mL): reversible
- fluorescence quenching mechanism (α-glucosidase [3]): static quenching mechanism
- Ksv (quenching constant) (α-glucosidase [3]; 298 K): 4.75 ± 0.01 ×10^5 L/mol
- n (number of binding sites) (α-glucosidase [3]; 298 K): 0.87
- ΔG^0 (α-glucosidase [3]; 298 K): -5.533 ± 0.0072 kcal/mol
- Ksv (quenching constant) (α-glucosidase [3]; 304 K): 4.05 ± 0.03 ×10^5 L/mol
- n (number of binding sites) (α-glucosidase [3]; 304 K): 0.83
- ΔG^0 (α-glucosidase [3]; 304 K): -5.33 ± 0.014 kcal/mol
- Ksv (quenching constant) (α-glucosidase [3]; 310 K): 3.32 ± 0.01 ×10^5 L/mol
- n (number of binding sites) (α-glucosidase [3]; 310 K): 0.86
- ΔG^0 (α-glucosidase [3]; 310 K): -5.048 ± 0.012 kcal/mol
- Kq (quenching rate constant) (α-glucosidase [3]; at each temperature (298, 304, 310 K)): > 2.0 × 10^10 L/mol⋅s
- ΔH^0 (α-glucosidase [3]; from 298, 304 and 310 K): -17.58 ± 0.086 kcal/mol
- ΔS^0 (α-glucosidase [3]; from 298, 304 and 310 K): −169.14 ± 0.33 J/mol⋅K
- Random coil content of α-glucosidase (α-glucosidase [4]; VEA:Vα–glucosidase 25:200): 28.43 ± 0.21%
- α–helix content of α-glucosidase (α-glucosidase [4]; VEA:Vα–glucosidase 25:200): 29.53 ± 0.29%
- β–sheet content of α-glucosidase (α-glucosidase [4]; VEA:Vα–glucosidase 25:200): 23.73 ± 0.21%
- β–turn content of α-glucosidase (α-glucosidase [4]; VEA:Vα–glucosidase 25:200): 18.07 ± 0.21%
- Random coil content of α-glucosidase (α-glucosidase [4]; VEA:Vα–glucosidase 50:200): 30.47 ± 0.33%
- α–helix content of α-glucosidase (α-glucosidase [4]; VEA:Vα–glucosidase 50:200): 28.17 ± 0.21%
- β–sheet content of α-glucosidase (α-glucosidase [4]; VEA:Vα–glucosidase 50:200): 26.60 ± 0.22%
- β–turn content of α-glucosidase (α-glucosidase [4]; VEA:Vα–glucosidase 50:200): 18.57 ± 0.29%
- Random coil content of α-glucosidase (α-glucosidase [4]; VEA:Vα–glucosidase 100:200): 32.87 ± 0.33%
- α–helix content of α-glucosidase (α-glucosidase [4]; VEA:Vα–glucosidase 100:200): 24.83 ± 0.29%
- β–sheet content of α-glucosidase (α-glucosidase [4]; VEA:Vα–glucosidase 100:200): 31.00 ± 0.54%
- β–turn content of α-glucosidase (α-glucosidase [4]; VEA:Vα–glucosidase 100:200): 18.70 ± 0.33%
- effect on α-glucosidase molecules observed by AFM (in words) (α-glucosidase [5]): aggregated together and formed irregular polymers
- reduction of AUC of blood glucose (Kunming mice; sucrose 2 g/kg + EA 25 mg/kg): 31.8%
- α-glucosidase inhibition (in words) (α-glucosidase [6]): almost no α-glucosidase inhibition

Structure (SMILES): Oc1ccc(/C=C/c2cc(O)cc(O)c2)cc1 [resveratrol, Resveratrol]
- α-glucosidase inhibitory activity of identified compounds (in words) (α-glucosidase [1]): strong inhibitory activity

— PMC9623087, “Bioaffinity ultrafiltration coupled with HPLC-ESI-MS/MS for screening potential α-glucosidase inhibitors from pomegranate peel” (Frontiers in Nutrition, 2022)
